Assay results published in patent US10392368B2, “Pyrazolo and triazolo bicyclic compounds as JAK kinase inhibitors” (THERAVANCE BIOPHARMA R&D IP, LLC, priority 2017, dated 2019).

What was measured:
[1] = Colon and plasma mouse pharmacokinetics; assay type: in vivo; conditions: mouse, colon tissue / plasma; male Balb/c mice, 10 mg/kg PO; 0.5, 2 and 6 hours; read-out: colon to plasma ratio (colon AUC to plasma AUC)
Method: 6 male Balb/c mice were administered 10 mg/kg of compound in 1% HPMC+0.1% Tween-80 by PO administration. At 0.5, 2 and 6 hours after dose administration, animals were anesthetized, and terminal blood samples were collected by cardiac puncture, followed by collection of colon contents and colon tissue.
Blood samples were collected into K2EDTA and stored on wet ice until processed to plasma by centrifugation (12000 rpm at 4° C.). Plasma samples were transferred to cluster tubes and placed on dry ice prior to freezer storage. The colon contents from each animal were collected at each terminal blood collection time point. The colon tissues were flushed with saline and patted dry. The colon and colon content tissues were homogenized using sterile water containing 0.1% formic acid 9:1 (water:tissue, v/w). The homogenized tissues and colon contents were transferred to cluster tubes and placed on dry ice prior to freezer storage. All samples were analyzed using LC/MS/MS against analytical standards.
The composite pharmacokinetic parameters of the compounds were determined by non-compartmental analysis using Phoenix WinNonlin Version 6 (Certara, St. Louis, Mo.) and using mean values from 2 animals/time point. For plasma concentrations below the quantification limit (BQL), the lowest concentration measurable or the BLOQ (below limit of quantification) was used.
A colon to plasma ratio was determined as the ratio of the colon AUC to the plasma AUC.

JAK3 = target: T1, JAK3 (Homo sapiens, UniProt P52333); experiment: Biochemical JAK3 kinase assay (LanthaScreen); parameters: GST; purchased Life Technologies; conditions: for Ki: read-out: JAK 3 (pKi) (converted); for JAK3 (pKi)-JAK1 (pKi): selectivity: difference of pKi JAK3 and pKi JAK1
T1 sequence (P52333 1-1124): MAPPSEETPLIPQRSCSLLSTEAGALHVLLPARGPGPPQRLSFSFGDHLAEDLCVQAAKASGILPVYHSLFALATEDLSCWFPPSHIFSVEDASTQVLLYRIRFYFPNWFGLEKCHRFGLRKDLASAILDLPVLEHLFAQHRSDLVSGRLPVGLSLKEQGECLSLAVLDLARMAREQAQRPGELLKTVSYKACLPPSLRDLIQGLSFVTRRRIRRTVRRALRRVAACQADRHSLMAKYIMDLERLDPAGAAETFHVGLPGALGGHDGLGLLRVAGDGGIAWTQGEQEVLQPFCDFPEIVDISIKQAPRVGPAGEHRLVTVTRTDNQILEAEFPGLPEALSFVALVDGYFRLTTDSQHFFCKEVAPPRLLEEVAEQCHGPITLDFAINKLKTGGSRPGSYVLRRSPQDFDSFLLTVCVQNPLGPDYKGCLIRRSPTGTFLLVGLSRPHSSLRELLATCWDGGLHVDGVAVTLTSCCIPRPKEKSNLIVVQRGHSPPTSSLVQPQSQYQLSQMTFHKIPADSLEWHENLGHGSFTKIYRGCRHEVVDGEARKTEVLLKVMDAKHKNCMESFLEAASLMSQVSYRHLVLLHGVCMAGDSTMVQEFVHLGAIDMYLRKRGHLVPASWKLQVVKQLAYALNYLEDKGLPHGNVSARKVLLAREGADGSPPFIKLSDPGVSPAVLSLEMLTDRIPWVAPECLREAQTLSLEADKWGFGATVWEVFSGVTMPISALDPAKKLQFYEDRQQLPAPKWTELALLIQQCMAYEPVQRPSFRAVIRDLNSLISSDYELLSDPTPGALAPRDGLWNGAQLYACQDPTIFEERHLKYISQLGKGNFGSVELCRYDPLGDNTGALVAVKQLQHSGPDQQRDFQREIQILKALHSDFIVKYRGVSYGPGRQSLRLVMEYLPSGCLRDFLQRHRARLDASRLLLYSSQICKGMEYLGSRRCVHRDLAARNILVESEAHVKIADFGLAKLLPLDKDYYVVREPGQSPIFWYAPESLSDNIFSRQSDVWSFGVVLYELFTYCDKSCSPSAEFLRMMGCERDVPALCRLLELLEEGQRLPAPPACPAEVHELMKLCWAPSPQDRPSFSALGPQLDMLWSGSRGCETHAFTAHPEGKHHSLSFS
In short: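 GST-tagged JAK enzyme and GFP-STAT1 peptide preincubated with compound 1 h, then ATP added; 1 h kinase reaction at ambient temperature, pH 7.5 HEPES/MgCl2 buffer, 1% DMSO. Tb-anti-pSTAT1 (pTyr701) TR-FRET, 520/495 nm ratio; IC50 from 4-parameter fit, converted to pKi via Cheng-Prusoff.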

CN(C)C/C=C/C(=O)N1CC(COc2cc(-c3ccc(O)cc3)cc3[nH]ncc23)C1 [Compound 1, (E)-4-(dimethylamino)-1-(3-(((6-(4-hydroxyphenyl)-1H-indazol-4-yl)oxy)methyl)azetidin-1-yl)but-2-en-1-one]
Kp [1]: > 1250 | Ki (JAK3): < 0.1 nM | JAK3 (pKi)-JAK1 (pKi) (JAK3): A (a value of 3 or above)

C=CC(=O)N1CC[C@H](Oc2cc(-c3ccc(O)c(Cl)c3)cc3[nH]ncc23)C1 [Compound 2, (S)-1-(3-((6-(3-chloro-4-hydroxyphenyl)-1H-indazol-4-yl)oxy)pyrrolidin-1-yl)prop-2-en-1-one]
Kp [1]: > 1250 | Ki (JAK3): < 0.1 nM | JAK3 (pKi)-JAK1 (pKi) (JAK3): A (a value of 3 or above)

CN(C)C/C=C/C(=O)N1CC(C(C)(C)Oc2cc(-c3ccc(O)c(Cl)c3)cc3[nH]ncc23)C1 [Compound 3, (E)-1-(3-(2-((6-(3-chloro-4-hydroxyphenyl)-1H-indazol-4-yl)oxy)propan-2-yl)azetidin-1-yl)-4-(dimethylamino)but-2-en-1-one]
Kp [1]: > 1250 | Ki (JAK3): 0.1 to 1 nM | JAK3 (pKi)-JAK1 (pKi) (JAK3): A (a value of 3 or above)

C=CC(=O)N1CC(COc2nc(-c3ccc(O)cc3)nc3[nH]ncc23)C1 [Compound 4, 1-(3-(((6-(4-hydroxyphenyl)-1H-pyrazolo[3,4-d]pyrimidin-4-yl)oxy)methyl)azetidin-1-yl)prop-2-en-1-one]
Kp [1]: > 1250 | Ki (JAK3): < 0.1 nM | JAK3 (pKi)-JAK1 (pKi) (JAK3): A (a value of 3 or above)

CN(C)C/C=C/C(=O)N1CC(COc2cc(-c3ccc(O)c(F)c3)cc3[nH]ncc23)C1 [Compound 5, (E)-4-(dimethylamino)-1-(3-(((6-(3-fluoro-4-hydroxyphenyl)-1H-indazol-4-yl)oxy)methyl)azetidin-1-yl)but-2-en-1-one]
Kp [1]: > 200 | Ki (JAK3): < 0.1 nM | JAK3 (pKi)-JAK1 (pKi) (JAK3): A (a value of 3 or above)

C=CC(=O)N1CCO[C@@H](C(=O)Nc2cc(-c3ccc(O)cc3)cc3[nH]ncc23)C1 [Compound 6, (R)-4-acryloyl-N-(6-(4-hydroxyphenyl)-1H-indazol-4-yl)morpholine-2-carboxamide]
Kp [1]: > 1250 | Ki (JAK3): < 0.1 nM | JAK3 (pKi)-JAK1 (pKi) (JAK3): A (a value of 3 or above)

C=CC(=O)N1CC[C@H](COc2cc(-c3ccc(O)cc3)cc3[nH]ncc23)C1 [Compound 7, (S)-1-(3-(((6-(4-hydroxyphenyl)-1H-indazol-4-yl)oxy)methyl)pyrrolidin-1-yl)prop-2-en-1-one]
Kp [1]: > 1250 | Ki (JAK3): 0.1 to 1 nM | JAK3 (pKi)-JAK1 (pKi) (JAK3): A (a value of 3 or above)

CN(C)C/C=C/C(=O)N1CC(C#N)(COc2cc(-c3ccc(O)c(F)c3)cc3[nH]ncc23)C1 [Compound 8, (E)-1-(4-(dimethylamino)but-2-enoyl)-3-(((6-(3-fluoro-4-hydroxyphenyl)-1Hindazol-4-yl)oxy)methyl)azetidine-3-carbonitrile]
Kp [1]: > 1250 | Ki (JAK3): < 0.1 nM | JAK3 (pKi)-JAK1 (pKi) (JAK3): A (a value of 3 or above)

CN(C)C/C=C/C(=O)N1CCC(C)(Oc2cc(-c3ccc(O)cc3)cc3[nH]ncc23)CC1 [Compound 9, (E)-4-(dimethylamino)-1-(4-((6-(4-hydroxyphenyl)-1H-indazol-4-yl)oxy)-4-methylpiperidin-1-yl)but-2-en-1-one]
Kp [1]: > 200 | Ki (JAK3): 0.1 to 1 nM | JAK3 (pKi)-JAK1 (pKi) (JAK3): A (a value of 3 or above)

C=CC(=O)N1CC(C(C)(C)Oc2cc(-c3ccc(O)cc3)nc3[nH]ncc23)C1 [Compound 20, 1-(3-(2-((6-(4-hydroxyphenyl)-1H-pyrazolo[3,4-b]pyridin-4-yl)oxy)propan-2-yl)azetidin-1-yl)prop-2-en-1-one]
Kp [1]: > 200 | Ki (JAK3): < 0.1 nM | JAK3 (pKi)-JAK1 (pKi) (JAK3): A (a value of 3 or above)

C=CC(=O)N1CC(C)(COc2nc(-c3ccc(O)c(F)c3)nc3[nH]ncc23)C1 [Compound 21, 1-(3-(((6-(3-fluoro-4-hydroxyphenyl)-1H-pyrazolo[3,4-d]pyrimidin-4-yl)oxy)methyl)-3-methylazetidin-1-yl)prop-2-en-1-one]
Kp [1]: > 1250 | Ki (JAK3): < 0.1 nM | JAK3 (pKi)-JAK1 (pKi) (JAK3): A (a value of 3 or above)

C=CC(=O)N1CC(CC)(COc2cc(-c3ccc(O)cc3)nc3[nH]ncc23)C1 [Compound 22, 1-(3-ethyl-3-(((6-(4-hydroxyphenyl)-1H-pyrazolo[3,4-b]pyridin-4-yl)oxy)methyl)azetidin-1-yl)prop-2-en-1-one]
Kp [1]: > 1250 | Ki (JAK3): < 0.1 nM | JAK3 (pKi)-JAK1 (pKi) (JAK3): A (a value of 3 or above)
